Values of other authors in patent US20100216994A1, “USE OF NOVEL COMPOUND HAVING AFFINITY FOR AMYLOID, AND PROCESS FOR PRODUCTION OF THE SAME” (NIHON MEDI-PHYSICS CO., LTD., priority 2007, published 2010).

How the values were obtained:
[1] = International Publication No. WO03/106439; cited from earlier work
[2] = [^11C]-labeled, rats; cited from earlier work

CC(=C(C#N)C#N)c1ccc2cc(N(C)CCF)ccc2c1 [FDDNP, 2-(1-{6-[(2-fluoroethyl)(methyl)amino]-2-naphthyl}ethylidene)malononitrile]
reverse mutation test result [1]: positive

CN(C)c1ccc(-c2cn3cc(I)ccc3n2)cc1 [IMPY, 6-iodo-2-[4′-(N,N-dimethylamino)phenyl]imidazo[1,2-a]pyridine]
reverse mutation test result [1]: positive

CNc1ccc(/C=C/c2ccc(O)cc2)cc1 [SB-13, (E)-4-methylamino-4′-hydroxystilbene]
clearance from normal tissues [2]: it cannot be said that the clearance is sufficiently fast
